Drawing on PMC12809495, “Potential 14-3-3 binding sites in sirtuins reveal extended phosphosite-recognition modes” (Acta Crystallographica Section F: Structural Biology …, 2026), this text covers Kd for 1 compound.

Where a SMILES comes first, the peptide text is derived from it. [ ]: non-standard residue; d: D form. pS = N[C@@H](COP(=O)(O)O)C(=O)O Bounds are passed on as bounds.

Experiment [1] has as its target T1, 14-3-3 isoform epsilon (Homo sapiens, UniProt P62258).
T1 construct: His6; made in house; host or cells: Escherichia coli BL21 Rosetta (DE3)
T1 sequence (P62258 1-255): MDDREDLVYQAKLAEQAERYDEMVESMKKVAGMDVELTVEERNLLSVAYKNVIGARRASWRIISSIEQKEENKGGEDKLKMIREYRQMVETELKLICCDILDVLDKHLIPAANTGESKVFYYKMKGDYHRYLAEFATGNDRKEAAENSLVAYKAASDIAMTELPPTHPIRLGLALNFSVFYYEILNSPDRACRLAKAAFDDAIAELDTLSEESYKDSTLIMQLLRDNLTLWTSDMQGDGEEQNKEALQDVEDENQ
As to the kind of experiment: Label-free microscale thermophoresis (MST) binding, 14-3-3 epsilon. To be noted: label-free MST, 0.6 µM 14-3-3 protein, 25 mM MES pH 6.5, 5 mM MgCl2, 5 mM CaCl2, 25°C; Kd from duplicate measurements; read-out: Affinity estimates by MicroScale Thermophoresis, 14-3-3 isoform epsilon (Kd). How it is done: The binding of phosphorylated sirtuin peptides (Fig. 1 ▸) was analyzed using the change in the intrinsic fluorescence signal of the 14-3-3 proteins measured with label-free microscale thermophoresis using a Nanotemper Monolith NT.LabelFree or NT.115. A typical binding experiment using 0.6 µM 14-3-3 protein was performed in a modified MST buffer consisting of 25 mM MES pH 6.5, 5 mM MgCl2, 5 mM CaCl2. The measurements were performed at 25°C using a LED power of 10–40%. All measurements were performed at least in duplicate, and the results shown are representative measurements individually fitted using GraFit 7 (Erathicus Software, Horley, United Kingdom).
Figure 1 Classification and analysis of sirtuin PSSM results for potential 14-3-3 phosphoserine binding sites. Peptides with a gray background were not analyzed experimentally. Score is the overall PSSM score for the phosphorylation site; rank is the order within the 17 proposed sirtuin binding sites. Conserved residues in the 14-3-3 motifs are marked in green. Residues with restricted (proline) or very flexible (glycine) protein backbone or with a very large side chain (tryptophan) are marked in red. Amino acids with the same or similar hydrophobicity/size are shown in magenta. Kd values from duplicate measurements are colored green for Kd < 100 µM. Fields marked in red indicate no binding or no successful experiment. TEXT PRINTED IN THE PICTURE: Sirt1 S26: Affinity estimates by MicroScale Thermophoresis [μM], 14-3-3 isoform sigma: none | Sirt1 S670: Affinity estimates by MicroScale Thermophoresis [μM], 14-3-3 isoform gamma: aggr.; Affinity estimates by MicroScale Thermophoresis [μM], 14-3-3 isoform epsilon: > 183; Affinity estimates by MicroScale Thermophoresis [μM], 14-3-3 isoform theta: 93; Affinity estimates by MicroScale Thermophoresis [μM], 14-3-3 isoform sigma: 5 | Sirt3 S103: Affinity estimates by MicroScale Thermophoresis [μM], 14-3-3 isoform gamma: aggr.; Affinity estimates by MicroScale Thermophoresis [μM], 14-3-3 isoform epsilon: > 267; Affinity estimates by MicroScale Thermophoresis [μM], 14-3-3 isoform theta: 52; Affinity estimates by MicroScale Thermophoresis [μM], 14-3-3 isoform sigma: 10 | Sirt3 S103wt: Affinity estimates by MicroScale Thermophoresis [μM], 14-3-3 isoform gamma: aggr.; Affinity estimates by MicroScale Thermophoresis [μM], 14-3-3 isoform theta: none; Affinity estimates by MicroScale Thermophoresis [μM], 14-3-3 isoform sigma: none | Sirt3 S105: Affinity estimates by MicroScale Thermophoresis [μM], 14-3-3 isoform gamma: aggr.; Affinity estimates by MicroScale Thermophoresis [μM], 14-3-3 isoform epsilon: > 215; Affinity estimates by MicroScale Thermophoresis [μM], 14-3-3 isoform theta: 60; Affinity estimates by MicroScale Thermophoresis [μM], 14-3-3 isoform sigma: none | Sirt5 S168: Affinity estimates by MicroScale Thermophoresis [μM], 14-3-3 isoform epsilon: aggr.; Affinity estimates by MicroScale Thermophoresis [μM], 14-3-3 isoform theta: aggr.; Affinity estimates by MicroScale Thermophoresis [μM], 14-3-3 isoform sigma: > 329 | Sirt6 T337: Affinity estimates by MicroScale Thermophoresis [μM], 14-3-3 isoform epsilon: > 420; Affinity estimates by MicroScale Thermophoresis [μM], 14-3-3 isoform sigma: 12 | Sirt6 S338: Affinity estimates by MicroScale Thermophoresis [μM], 14-3-3 isoform epsilon: 19; Affinity estimates by MicroScale Thermophoresis [μM], 14-3-3 isoform sigma: 24 | Sirt7 S136: Affinity estimates by MicroScale Thermophoresis [μM], 14-3-3 isoform epsilon: none; Affinity estimates by MicroScale Thermophoresis [μM], 14-3-3 isoform theta: 30; Affinity estimates by MicroScale Thermophoresis [μM], 14-3-3 isoform sigma: 49

Experiment [2] has as its target T2, 14-3-3σ-ΔC (Homo sapiens, UniProt P31947).
T2 construct: His6; made in house; host or cells: Escherichia coli BL21 Rosetta (DE3)
T2 sequence (P31947 1-231 limits assumed): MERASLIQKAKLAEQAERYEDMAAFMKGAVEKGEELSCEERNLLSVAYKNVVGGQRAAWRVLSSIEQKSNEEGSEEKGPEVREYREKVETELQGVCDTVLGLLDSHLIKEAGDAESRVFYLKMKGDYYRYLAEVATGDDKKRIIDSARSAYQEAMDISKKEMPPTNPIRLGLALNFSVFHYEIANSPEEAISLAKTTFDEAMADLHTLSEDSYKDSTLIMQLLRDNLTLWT
As to the kind of experiment: Isothermal titration calorimetry (ITC). To be noted: Fig. 3c; nanoITC, 150 µM 14-3-3σ-ΔC in cell, fourfold-concentrated peptide, 2 µl injections, 25°C, one-site fit; duplicate, error between fits; read-out: apparent Kd, ITC. The class given is binding. The procedure: Peptide ligands were freshly prepared in the exact same buffer as was used for the gel-filtration run. Samples were degassed and temperature-equilibrated using a degassing station (TA Instruments). A volume of 250 µl of 14-3-3σ-ΔC protein sample at a concentration of 150 µM was transferred into the sample cell of a nanoITC (TA Instruments) and 50 µl of a fourfold-concentrated phosphorylated peptide was loaded into the injection needle. Multiple injection measurements were carried out at 25°C with a 300 rev min^−1 stirring rate and 300 s spacing between each 2 µl injection. The heat quantity post-injection was determined by integration of the measured peaks. The Sirt1^pS670 peptide behaved best and was measured in duplicate. Subtraction of heat of dilution measurements, peak integration and one-site binding fits were performed with NanoAnalyze (TA Instruments). The reported errors are the errors between fits of the measured duplicates.
Figure 3 Affinity measurements of Sirt1^pS670 and different Sirt3 peptides for 14-3-3σ-ΔC protein using MST and ITC experiments. […] (b) MST experiments of titrations of 14-3-3σ-ΔC with Sirt3^pS105 (squares) or Sirt3^pS103 (two independent runs, filled triangles and triangles) endecamer peptides and, for comparison, with nonphosphoylated Sirt3^S103 peptide (circles).

For the compound `CC(C)C[C@H](NC(=O)[C@@H](N)C(C)C)C(=O)N[C@@H](CO)C(=O)N[C@@H](CO)C(=O)N[C@@H](CO)C(=O)N[C@@H](COP(=O)(O)O)C(=O)N[C@@H](CS)C(=O)NCC(=O)N[C@@H](CO)C(=O)N[C@@H](CC(N)=O)C(=O)N[C@@H](CO)C(=O)O` [Sirt1^pS670] (H-VLSSS[pS]CGSNS-OH), the values for the Kd in experiment [1] and in experiment [2] were greater than 183 µM and 5 ± 4.2 µM, respectively.
